Results from PMC4551912, “Synthetic biosensors for precise gene control and real-time monitoring of metabolites” (Nucleic Acids Research, 2015).

Legend:
TetR = TetR (Escherichia coli, UniProt P04483); assay type: cell-based; settings: high-copy plasmid, LB, 37°C; extracellular inducer; induction (derepression); lumped parameter of uptake, DNA binding and Kd, not a pure affinity; read-out: Half maximal parameter
CdaR = target: T1, CdaR (Escherichia coli, UniProt P37047); assay type: cell-based; settings: high-copy plasmid, LB, 37°C; extracellular inducer; activation; lumped parameter of uptake, DNA binding and Kd, not a pure affinity; read-out: Half maximal parameter
T1 sequence (P37047 1-385): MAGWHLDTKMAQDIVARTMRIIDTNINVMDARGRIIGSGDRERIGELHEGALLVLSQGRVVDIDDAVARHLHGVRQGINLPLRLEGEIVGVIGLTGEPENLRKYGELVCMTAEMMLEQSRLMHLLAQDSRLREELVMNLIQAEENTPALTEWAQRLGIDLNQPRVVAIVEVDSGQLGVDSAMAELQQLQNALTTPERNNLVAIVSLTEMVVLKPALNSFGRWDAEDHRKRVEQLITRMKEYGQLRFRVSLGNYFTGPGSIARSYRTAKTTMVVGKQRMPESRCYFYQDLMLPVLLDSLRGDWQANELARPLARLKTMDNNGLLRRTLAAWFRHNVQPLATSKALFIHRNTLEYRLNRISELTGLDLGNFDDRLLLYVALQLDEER

Sequence of TetR (P04483 whole entry, looked up): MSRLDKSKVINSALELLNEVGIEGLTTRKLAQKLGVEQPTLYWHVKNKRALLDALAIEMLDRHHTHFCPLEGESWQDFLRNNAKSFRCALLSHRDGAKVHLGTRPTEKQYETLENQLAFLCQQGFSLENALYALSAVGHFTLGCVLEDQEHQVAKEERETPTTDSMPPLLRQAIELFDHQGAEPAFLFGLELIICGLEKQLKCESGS

Row | EC50 (CdaR) | Structure (SMILES) | EC50 (TetR)
1 |  | Cc1c2c(c(O)c3c(O)cccc13)C(=O)[C@]1(O)C(=O)C(C(N)=O)=C(O)[C@@H](N(C)C)[C@@H]1C2 [anhydrotetracycline] | 0.081 ± 0.001 µM
2 | 490 ± 60 µM | O=C(O)[C@@H](O)[C@@H](O)[C@H](O)[C@@H](O)C(=O)O [glucarate] | 
